Common to all, as to experiment: In vitro MMP inhibition, IC50 determination (fluorogenic substrate I)
Type in all cases: biochemical
Holding throughout (details): value outside parenthesis

Test [1] deals with T1, Human recombinant MMP-1 (Homo sapiens, UniProt P03956).
T1 construct: made in house; host or cells: MMP-1-transfected HT-1080 cells (spent media)
T1 sequence (P03956 100-469): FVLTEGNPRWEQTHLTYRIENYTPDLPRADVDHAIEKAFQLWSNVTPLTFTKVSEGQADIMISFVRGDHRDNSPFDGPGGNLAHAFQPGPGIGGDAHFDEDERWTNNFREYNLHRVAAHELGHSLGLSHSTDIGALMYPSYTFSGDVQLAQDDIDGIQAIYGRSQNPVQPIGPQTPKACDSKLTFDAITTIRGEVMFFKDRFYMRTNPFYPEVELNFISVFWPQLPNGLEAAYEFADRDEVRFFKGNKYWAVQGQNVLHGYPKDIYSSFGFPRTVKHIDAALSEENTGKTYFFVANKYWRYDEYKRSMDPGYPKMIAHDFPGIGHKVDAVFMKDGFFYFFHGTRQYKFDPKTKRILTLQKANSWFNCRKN
How it is done:
(§1) Several hydroxamates and salts thereof were analyzed in in vitro assays to determine their ability to inhibit the MMP cleavage of peptide substrates. Inhibition (Ki) and IC50 constants were calculated from the assayed hydroxamate-MMP interactions.
(§2) Human recombinant MMP-1, MMP-2, MMP-9, MMP-13, and MMP-14 were used in this assay. All enzymes were prepared in Assignee's laboratories following usual laboratory procedures. Protocols for the preparation and use of these enzymes are available in the scientific literature. See, e.g., Enzyme Nomenclature (Academic Press, San Diego, Calif., 1992) (and the citations therein). See also, Frije et al., J. Biol. Chem., 26(24), 16766-73 (1994).
The MMP-1 proenzyme was purified from the spent media of MMP-1-transfected HT-1080 cells provided by Dr. Harold Welgus of Washington University (St. Louis, Mo.). The protein was purified on a zinc chelating column.
(§3) All MMPs were activated using 4-aminophenylmercuric acetate (“APMA”, Sigma Chemical, St. Louis, Mo.) or trypsin. MMP-9 also was activated using human recombinant MMP-3 (purified in Assignee's laboratory following standard cloning and purification techniques).
(§4) Two fluorogenic, methoxycoumarin-containing polypeptide substrates were used in the MMP inhibition assays:
(§5) MCA-ProLeuGlyLeuDpaAlaArgNH2 (I)
(§6) Here, “Dpa” is 3-(2,4-dinitrophenyl)-L-2,3-diaminopropionyl group, and “MCA” is 7-methoxycoumarin-4-yl acetyl. Substrate (I) was purchased from Baychem (Redwood City, Calif.), and substrate II was prepared Assignee's laboratory. Substrate I was used in the IC50 determination assays, while substrate II was used in the Ki determination assays. In the absence of MMP inhibitory activity, either substrate is cleaved at the Gly-Leu peptide bond. This cleavage separates the highly fluorogenic peptide from the 2,4-dinitrophenyl quencher, thus resulting in increase of fluorescent intensity.
(§7) The stock solutions of the assayed hydroxamates (or salts thereof) were prepared in 1% dimethyl sulfoxide (DMSO). These stock solutions were diluted in Buffer A (100 mM Tris-HCl, 100 mM NaCl, 10 mM CaCl2, 0.05% polyoxyethylene 23 lauryl ether, pH 7.5) to obtain solutions with different hydroxamate concentrations, i.e., assay solutions with different concentrations of the assayed MMP inhibitory compound. The experiment controls contained the same amount of Buffer A/DMSO as the assayed sample, but contained no hydroxamate (or salt thereof).
(§8) The assays from which the IC50 determinations were made were performed as follows. The MMPs were activated with either trypsin or APMA (4-aminophenylmercuric acetate, Sigma Chemical, St. Louis, Mo.). The assayed hydroxamate samples were, incubated in Microfluorrm White Plates (Dynatech, Chantilly, VA) and analyzed on a Perkin Elmer L550 plate reader (Norwalk, Conn.). The excitation wavelength was 328 nm, and the emission wavelength—415 nm. All samples (assayed hydroxamates and controls) were incubated in separate plates at room temperature in the presence of 4 μM of MMP substrate (I). As stated in the previous paragraph, samples containing varying concentrations of the same assayed hydroxamate were prepared. Inhibition was measured as a reduction in fluorescent intensity as a function of MMP inhibitor concentration.

Test [2] addresses T2, Human recombinant MMP-2 (Homo sapiens, UniProt P08253).
T2 construct: made in house; host or cells: MMP-2-transfected p2AHT2 cells
T2 sequence (P08253 110-660): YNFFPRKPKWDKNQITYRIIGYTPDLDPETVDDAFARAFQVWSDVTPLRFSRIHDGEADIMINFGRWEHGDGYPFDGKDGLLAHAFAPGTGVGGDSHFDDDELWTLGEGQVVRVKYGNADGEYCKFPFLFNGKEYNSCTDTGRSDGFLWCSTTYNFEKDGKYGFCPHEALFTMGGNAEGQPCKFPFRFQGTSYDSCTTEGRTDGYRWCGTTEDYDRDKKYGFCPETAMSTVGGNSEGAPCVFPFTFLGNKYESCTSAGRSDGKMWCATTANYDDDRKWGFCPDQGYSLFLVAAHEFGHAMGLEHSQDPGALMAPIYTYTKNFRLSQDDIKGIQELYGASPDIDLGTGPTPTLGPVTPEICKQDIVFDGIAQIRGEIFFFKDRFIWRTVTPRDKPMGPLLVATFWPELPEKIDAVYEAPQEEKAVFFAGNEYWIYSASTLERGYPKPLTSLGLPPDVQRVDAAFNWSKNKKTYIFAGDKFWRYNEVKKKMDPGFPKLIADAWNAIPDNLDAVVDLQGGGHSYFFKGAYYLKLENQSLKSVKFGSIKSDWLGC
In a few lines:
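IC50 was derived from the concentration-dependent fall in fluorescence (ex 328, em 415 nm) on Gly-Leu cleavage of 4 μM MCA/Dpa-quenched substrate I. Assays ran at room temperature in pH 7.5 Tris/NaCl/CaCl2/Brij buffer with MMP-2 activated by trypsin or APMA; inhibitors were diluted from 1% DMSO stocks.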

Test [3] addresses T3, Human recombinant MMP-9 (Homo sapiens, UniProt P14780).
T3 construct: made in house; host or cells: MMP-9-transfected HT1080 cells (spent media)
How it is done:
as §1, §2
The MMP-9 proenzyme was purified by gelatin Sepharose chromatography from spent media of MMP-9-transfected HT1080 cells provided by Dr. Howard Welgus of Washington University (St. Louis, Mo.).
as §3, §4, §5, §6, §7, §8

In test [4] the target is T4, Human recombinant MMP-13 (Homo sapiens, UniProt P45452).
T4 construct: made in house; host or cells: baculovirus / insect cells
Put shortly:
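Fluorescence at 415 nm (excitation 328 nm) reports Gly-Leu cleavage of 4 μM quenched methoxycoumarin peptide substrate I. Human recombinant MMP-13, activated by trypsin or APMA, was incubated at room temperature with varied inhibitor concentrations in pH 7.5 Tris/NaCl/CaCl2 buffer; IC50 derived from reduced fluorescence.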

Test [5] deals with T5, Human recombinant MMP-14 (Homo sapiens, UniProt P50281).
T5 construct: The catalytic domain enzyme was expressed in E. coli inclusion bodies, solubilized in urea; made in house
How it is done: as §1, §2
The MMP-14 full length cDNA was provided by Dr. Gregory Goldberg of Washington University (St. Louis, Mo.). The catalytic domain enzyme was expressed in E. coli inclusion bodies, solubilized in urea, purified on a preparative […] reverse phase HPLC column, and then refolded in the presence of zinc acetate and purified for use.
as §3, §4, §5, §6, §7, §8

In general, IC50 refers to the concentration that inhibits the measured activity by half.

Some results are limits rather than exact numbers.

T3 sequence (P14780 107-707 limits assumed): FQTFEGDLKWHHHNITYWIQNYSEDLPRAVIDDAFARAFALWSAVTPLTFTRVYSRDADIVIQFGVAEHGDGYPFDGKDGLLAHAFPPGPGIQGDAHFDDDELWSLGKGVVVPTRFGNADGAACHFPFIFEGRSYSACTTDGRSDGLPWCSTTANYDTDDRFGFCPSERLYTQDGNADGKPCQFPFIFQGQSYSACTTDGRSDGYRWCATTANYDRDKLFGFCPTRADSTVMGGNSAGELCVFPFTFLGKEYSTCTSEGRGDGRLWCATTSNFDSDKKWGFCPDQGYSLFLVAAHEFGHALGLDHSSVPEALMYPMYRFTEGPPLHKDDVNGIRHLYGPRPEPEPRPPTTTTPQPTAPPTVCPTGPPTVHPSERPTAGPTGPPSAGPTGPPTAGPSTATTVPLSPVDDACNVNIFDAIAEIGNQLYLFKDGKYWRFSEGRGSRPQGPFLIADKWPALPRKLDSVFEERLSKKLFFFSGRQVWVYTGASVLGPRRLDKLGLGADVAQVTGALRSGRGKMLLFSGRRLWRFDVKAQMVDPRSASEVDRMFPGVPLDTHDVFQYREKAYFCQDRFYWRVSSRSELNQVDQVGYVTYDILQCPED

Regarding `COCCN1CCC(C(=O)NO)(S(=O)(=O)c2ccc(OCCCn3nnc(-c4ccc(C(F)(F)F)cc4)n3)cc2)CC1` [Example 103], the half-maximal inhibitory concentration (IC50) in test [1] was over 10000 nM; in test [2], 85.8 nM; in test [3], 1130 nM; in test [4], 0.4 nM; in test [5], over 10000 nM.
For the molecule `CC(C)C[C@@H]1C(=O)N(CCCOc2ccc(S(=O)(=O)C3(C(=O)NO)CCOCC3)cc2)C(=O)N1c1ccccc1` [Example 105], the IC50 is over 10000 nM in test [1]; 1370 nM in test [2]; 7690 nM in test [3]; 9.7 nM in test [4]; over 10000 nM in test [5].
For the molecule `CC[C@@H]1C(=O)N(CCCOc2ccc(S(=O)(=O)C3(C(=O)NO)CCOCC3)cc2)C(=O)N1c1ccccc1` [Example 106], the IC50 was over 10000 nM in test [1]; 1050 nM in test [2]; over 10000 nM in test [3]; 3.5 nM in test [4]; over 10000 nM in test [5].
Regarding `Cc1cc(-c2cccc(CCOc3ccc(S(=O)(=O)C4(C(=O)NO)CCOCC4)cc3)c2)ccc1F` [Example 120], the IC50 was over 10000 nM in test [1]; 1170 nM in test [2]; over 10000 nM in test [3]; 5.8 nM in test [4]; over 10000 nM in test [5].
For the molecule `O=C(NO)C1(S(=O)(=O)c2ccc(OCCc3cccc(-c4ccc(F)c(F)c4)c3)cc2)CCOCC1` [Example 122], the IC50 was over 10000 nM in test [1]; 760 nM in test [2]; 7670 nM in test [3]; 1.9 nM in test [4]; over 10000 nM in test [5].
With `COCCN1CCC(C(=O)NO)(S(=O)(=O)c2ccc(OCCCn3nnc(-c4ccc(SC)cc4)n3)cc2)CC1` [Example 130], the IC50 in test [1] stood at 4610 nM; in test [2], 4.7 nM; in test [3], 50.2 nM; in test [4], 0.3 nM; in test [5], 500 nM.
In the same order, the values of `CC(C)[C@H]1C(=O)N(CCCOc2ccc(S(=O)(=O)C3(C(=O)NO)CCOCC3)cc2)C(=O)N1c1ccccc1` [Example 134] are over 10000 nM, 2380 nM, over 10000 nM, 7.7 nM and over 10000 nM.
In the same order, the values of `CCN1CCC(C(=O)NO)(S(=O)(=O)c2ccc(OCCCc3cccc(-c4ccc(F)cc4)c3)cc2)CC1` [Example 138] are over 10000 nM, 247 nM, 1900 nM, 2.1 nM and over 10000 nM.

For the origin of these results see patent US20040024024A1, “Aromatic sulfone hydroxamates and their use as protease inhibitors” (priority 2001, published 2004).
